Columns and labels:
Assay type in all cases: in vivo
[1] = system: Boll Weevil (Anthonomus grandis); experiment: Activity against Boll Weevil (eggs sprayed in microtiterplates); settings: 3 to 5 days, untreated controls 0% mortality
Method: The active compounds were formulated in 1:3 DMSO:water. 10 to 15 eggs were placed into microtiterplates filled with 2% agar-agar in water and 300 ppm formaline. The eggs were sprayed with 20 μl of the test solution, the plates were sealed with pierced foils and kept at 24-26° C. and 75-85% humidity with a day/night cycle for 3 to 5 days. Mortality was assessed on the basis of the remaining unhatched eggs or larvae on the agar surface and/or quantity and depth of the digging channels caused by the hatched larvae. Tests were replicated 2 times.

[2] = system: Mediterranean Fruitfly (Ceratitis capitata); experiment: Activity against Mediterranean Fruitfly (eggs sprayed in microtiterplates); settings: 144 h, 6 days, untreated controls 0% mortality
Method: The active compounds were formulated in 1:3 DMSO:water. 50 to 80 eggs were placed into microtiterplates filled with 0.5% agar-agar and 14% diet in water. The eggs were sprayed with 5 μl of the test solution, the plates were sealed with pierced foils and kept at 27-29° C. and 75-85% humidity under fluorescent light for 6 days. Mortality was assessed on the baswas of the agility of the hatched larvae. Tests were replicated 2 times.

[3] = system: Brown Planthopper (Nilaparvata lugens); experiment: Activity against Brown Planthopper (sprayed rice seedlings); settings: 300 ppm, 10 adults, recorded after 24, 72 and 120 hours
Method: The active compounds were formulated in 50:50 acetone:water. Potted rice seedlings were sprayed with 10 ml test solution, air dried, placed in cages and inoculated with 10 adults. Percent mortality was recorded after 24, 72 and 120 hours.

[4] = system: Vetch Aphid (Megoura viciae); experiment: Activity against Vetch Aphid (sprayed bean leaf disks); settings: foliar, 144 h, adult aphids, 6 days, untreated controls 0% mortality
Method: The active compounds were formulated in 1:3 DMSO:water. Bean leaf disks were placed into microtiterplates filled with 0.8% agar-agar and 2.5 ppm OPUS™. The leaf disks were sprayed with 2.5 μl of the test solution and 5 to 8 adult aphids were placed into the microtiterplates which were then closed and kept at 22-24° C. and 35-45% under fluorescent light for 6 days. Mortality was assessed on the basis of vital, reproduced aphids. Tests were replicated 2 times.

Structure (SMILES) | mortality at 2500 ppm [1] | mortality at 2500 ppm [2] | mortality [3] | mortality at 2500 ppm [4]
N#CC(C#N)(CSC(F)(F)F)Cc1ccc(Cl)c(Cl)c1 [Compound I-1, 2-(3,4-dichloro-benzyl)-2-trifluoromethylsulfanylmethyl-malononitrile] | > 75% | > 75% | – | –
CC(C)(C)c1cc(CC(C#N)(C#N)CCSC(F)(F)F)on1 [Compound I-35] | – | – | over 90% | –
N#CC(C#N)(CCS(=O)(=O)C(F)(F)F)Cc1ccc(Cl)c(Cl)c1 [Compound I-19, 2-(3,4-Dichlorobenzyl)-2-(2-trifluoromethanesulfonyl-ethyl)-malononitrile] | > 75% | > 75% | – | –
N#CC(C#N)(CC[S+]([O-])C(F)(F)F)Cc1ccc(Cl)c(Cl)c1 (stereo not shown) [Compound I-15, 2-(3,4-Dichlorobenzyl)-2-(2-trifluoromethanesulfinyl-ethyl)-malononitrile] | > 75% | > 75% | – | –
N#CC(C#N)(CCSC(F)(F)F)Cc1ccc(Cl)c(Cl)c1 [Compound I-7, 2-(3,4-Dichloro-benzyl)-2-(2-trifluoromethylsulfanyl-ethyl)-malononitrile] | > 75% | > 75% | – | > 75%
